Measured values from US7001897B2, “1-methylcarbapenem derivatives” (Sankyo Company, Limited, priority 2000, dated 2006).
Values after ≈ are worked out from the molar mass of the structure shown. Where a name gives a salt, the structure may show the parent alone. Read-outs that look alike come from different tables or passages of the source.

Assays:
[1] = Pharmacokinetics, plasma concentration by bioassay after subcutaneous injection; assay type: in vivo; details: mouse, sc, mice (ddY, male), 20 mg/kg subcutaneous; for AUC: read-out: AUCall (area under the concentration-time curve in plasma); for Cmax: read-out: Cmax (maximal plasma concentration); for half-life: read-out: T1/2 (half-life in plasma concentration) (converted)
Protocol: The compounds of the present invention compound (20 mg/kg) was subcutaneously injected to mice (n=3, ddY, male, purchased from SLC Japan). The plasma concentration of the compound was determined by a bioassay method at 5, 15, and 30 min, and 1, 1.5, and 2 hr after administration. In the Table, Cmax, T1/2, and AUCall indicate the maximal plasma concentration, half-life in plasma concentration, and area under the concentration-time curve in plasma of the compound, respectively.

[2] = system: Haemophilis influenzae strain 9787 (a strain producing β-lactamase); test: In vitro antibacterial activity, agar plate dilution method; assay type: cell-based; details: read-out: Minimum Concentration to Inhibit Growth of the Employed Bacteria C
Protocol: (§1) To assess the antibacterial activities of the compounds, the minimum concentrations (μg/ml) of the compounds to inhibit growth of various pathogenic bacteria were determined by agar plate dilution method. In this Table, the employed bacteria A, B, and C were as follow: • A: Staphylococcus aureus • B: Streptococcus pneumoniae • C: Haemophilis influenzae strain 9787 (a strain producing β-lactamase)

Streptococcus pneumoniae = test: as above; assay type: cell-based; details: read-out: Minimum Concentration to Inhibit Growth of the Employed Bacteria B
Protocol: as §1

Staphylococcus aureus = test: as above; assay type: cell-based; details: read-out: Minimum Concentration to Inhibit Growth of the Employed Bacteria A
Protocol: as §1

[3] = system: S. pneumoniae 9605 (PRSP); test: In vivo antibacterial activity, intraperitoneal infection of mice; details: Streptococcus pneumoniae, 168 h; male ddY mice, i.p. S. pneumoniae 9605 (PRSP), single subcutaneous treatment, Probit method from survival rates 7 days after infection
Protocol: Male ddY mice of 4 weeks old (purchased from SLC Japan) were intraperitoneally inoculated with S. pneumoniae 9605 (PRSP) at a volume of 0.2 ml (containing 5% mucin, 1-5×10^3 colony forming unit (cfu)/mouse). Immediately after the mice were infected, they were subcutaneously treated with the test compound singly at a volume of 0.1 ml. Seven mice were used per group. A solution of the test compound prepared by 2-step dilution was used for the experiment. ED50 values of the compounds were calculated by the Probit method from survival rates 7 days after infection.

[4] = C: Haemophilis influenzae strain 9787 (β-lactamase producing), agar plate dilution
[5] = B: Streptococcus pneumoniae, agar plate dilution
[6] = A: Staphylococcus aureus, agar plate dilution

Structure (SMILES)	AUC [1] [ng·h/mL]	Cmax [1] [µg/mL]	half-life [1] [min]	MIC [2, 4] [µg/mL]	MIC (Streptococcus pneumoniae; [5]) [µg/mL]	MIC (Staphylococcus aureus; [6]) [µg/mL]	ED50 [3] [mg/kg]	AUC ([1]; in vivo) [ng·h/mL]	Cmax ([1]; in vivo) [µg/mL]	half-life ([1]; in vivo) [min]	MIC [2] [µg/mL]	MIC (Streptococcus pneumoniae; Streptococcus pneumoniae) [µg/mL]	MIC (Staphylococcus aureus; Staphylococcus aureus) [µg/mL]
C[C@@H](O)[C@H]1C(=O)N2C(C(=O)[O-])=C(SC3CN(c4nc(C(N)=O)cs4)C3)[C@H](C)[C@H]12.[Na+] [Example 3, (1R,5S,6S)-2-[1-(4-Carbamoyl-1,3-thiazol-2-yl)azetidin-3-yl]thio-6-[(R)-1-hydroxyethyl]-1-methylcarbapen-2-em-3-carboxylic acid sodium salt]	83900	127	15	0.1	0.2	0.05	–	–	–	–	–	–	–
C[C@@H](O)[C@H]1C(=O)N2C(C(=O)O)=C(SC3CN(c4nc(C(=O)NC5CNC5)cs4)C3)[C@H](C)[C@H]12 [Example 59, (1R,5S,6S)-2-{1-[4-(azetidin-3-ylcarbamoyl)-1,3-thiazol-2-yl]azetidin-3-yl}thio-6-[(R)-1-hydroxyethyl]-1-methylcarbapen-2-em-3-carboxylic acid]	–	–	–	0.2 (≈ 0.417 µM)	0.2 (≈ 0.417 µM)	≤ 0.012	1.08	–	–	–	–	–	–
C[C@@H](O)[C@H]1C(=O)N2C(C(=O)O)=C(SC3CN(c4nc(C(=O)N[C@@H]5CCNC5)cs4)C3)[C@H](C)[C@H]12 [Example 58, (1R,5S,6S)-2-{1-[4-((3R)-pyrrolidin-3-ylcarbamoyl)-1,3-thiazol-2-yl]azetidin-3-yl}thio-6-[(R)-1-hydroxyethyl]-1-methylcarbapen-2-em-3-carboxylic acid]	47400	63.9	24.6	0.2 (≈ 0.405 µM)	0.2 (≈ 0.405 µM)	≤ 0.012	0.899	–	–	–	–	–	–
C[C@@H](O)[C@H]1C(=O)N2C(C(=O)[O-])=C(SC3CN(c4nc(C#N)cs4)C3)[C@H](C)[C@H]12.[Na+] [Example 4, (1R,5S,6S)-2-[1-(4-Cyano-1,3-thiazol-2-yl)azetidin-3-yl]thio-6-[(R)-1-hydroxyethyl]-1-methylcarbapen-2-em-3-carboxylic acid sodium salt]	–	–	–	–	–	–	–	165000	157	61.2	0.2	0.2	0.05
C[C@@H](O)[C@H]1C(=O)N2C(C(=O)O)=C(SC3CN(c4nc(C(=O)N[C@H]5CCNC5)cs4)C3)[C@H](C)[C@H]12 [Example 57, (1R,5S,6S)-2-{1-[4-((3S)-pyrrolidin-3-ylcarbamoyl)-1,3-thiazol-2-yl]azetidin-3-yl}thio-6-[(R)-1-hydroxyethyl]-1-methylcarbapen-2-em-3-carboxylic acid]	45300	48.1	22.8	0.2 (≈ 0.405 µM)	0.2 (≈ 0.405 µM)	0.025 (≈ 0.0506 µM)	0.855	–	–	–	–	–	–
C[C@@H](O)[C@H]1C(=O)N2C(C(=O)O)=C(SC3CN(c4nc(C(=O)NC5CCNCC5)cs4)C3)[C@H](C)[C@H]12 [Example 56, (1R,5S,6S)-2-{1-[4-(piperidin-4-ylcarbamoyl)-1,3-thiazol-2-yl]azetidin-3-yl}thio-6-[(R)-1-hydroxyethyl]-1-methylcarbapen-2-em-3-carboxylic acid]	–	–	–	0.2 (≈ 0.394 µM)	0.2 (≈ 0.394 µM)	0.05 (≈ 0.0985 µM)	–	–	–	–	–	–	–
CNC(=O)c1csc(N2CC(SC3=C(C(=O)[O-])N4C(=O)[C@H]([C@@H](C)O)[C@H]4[C@H]3C)C2)n1.[Na+] [Example 5, (1R,5S,6S)-2-[1-(4-N-Methylcarbamoyl-1,3-thiazol-2-yl)azetidin-3-yl]thio-6-[(R)-1-hydroxyethyl]-1-methylcarbapen-2-em-3-carboxylic acid sodium salt]	–	–	–	0.2	0.2	0.05	–	–	–	–	–	–	–
C[C@@H](O)[C@H]1C(=O)N2C(C(=O)[O-])=C(SC3CN(c4nc(C(N)=O)co4)C3)[C@H](C)[C@H]12.[Na+] [Example 22, (1R,5S,6S)-2-[1-(4-Carbamoyl-1,3-oxazol-2-yl)azetidin-3-yl]thio-6-[(R)-1-hydroxyethyl]-1-methylcarbapen-2-em-3-carboxylic acid sodium salt]	–	–	–	0.1	0.2	0.05	–	–	–	–	–	–	–
C[C@@H](O)[C@H]1C(=O)N2C(C(=O)[O-])=C(SC3CN(c4nc(C(=O)N5CCSCC5)cs4)C3)[C@H](C)[C@H]12.[Na+] [Example 25, (1R,5S,6S)-2-[1-(4-Thiomorpholinocarbonyl-1,3-thiazol-2-yl)azetidin-3-yl]thio-6-[(R)-1-hydroxyethyl]-1-methylcarbapen-2-em-3-carboxylic acid sodium salt]	–	–	–	0.39	0.1	0.025	–	–	–	–	–	–	–

More lines, main results first:

AUC [1] [ng·h/mL]	Cmax [1] [µg/mL]	half-life [1] [min]	MIC [2, 4] [µg/mL]	MIC (Streptococcus pneumoniae; [5]) [µg/mL]	MIC (Staphylococcus aureus; [6]) [µg/mL]	Structure (SMILES)	ED50 [3] [mg/kg]	AUC ([1]; in vivo) [ng·h/mL]	Cmax ([1]; in vivo) [µg/mL]	half-life ([1]; in vivo) [min]	MIC [2] [µg/mL]	MIC (Streptococcus pneumoniae; Streptococcus pneumoniae) [µg/mL]	MIC (Staphylococcus aureus; Staphylococcus aureus) [µg/mL]
–	–	–	0.39 (≈ 0.834 µM)	0.2 (≈ 0.428 µM)	0.025 (≈ 0.0535 µM)	C[C@@H](O)[C@H]1C(=O)N2C(C(=O)O)=C(SC3CN(c4nc(C(=O)NCCN)cs4)C3)[C@H](C)[C@H]12 [Example 61, (1R,5S,6S)-2-{1-[4-((2-aminoethyl)carbamoyl)-1,3-thiazol-2-yl]azetidin-3-yl}thio-6-[(R)-1-hydroxyethyl]-1-methylcarbapen-2-em-3-carboxylic acid]	1.79	–	–	–	–	–	–
27900	52.8	11.4	0.39	0.2	0.05	C[C@@H](O)[C@H]1C(=O)N2C(C(=O)[O-])=C(SC3CN(c4nc(C(=O)N5CCOCC5)co4)C3)[C@H](C)[C@H]12.[Na+] [Example 76, (1R,5S,6S)-2-[1-(4-morpholinocarbonyl-1,3-oxazol-2-yl)azetidin-3-yl]thio-6-[(R)-1-hydroxyethyl]-1-methylcarbapen-2-em-3-carboxylic acid sodium salt]	0.534	–	–	–	–	–	–
27900	46.1	18	0.39 (≈ 0.79 µM)	0.39 (≈ 0.79 µM)	0.025 (≈ 0.0506 µM)	C[C@@H](O)[C@H]1C(=O)N2C(C(=O)O)=C(SC3CN(c4nc(C(=O)N5CCNCC5)cs4)C3)[C@H](C)[C@H]12 [Example 60, (1R,5S,6S)-2-{1-[4-(piperazine-1-carbonyl)-1,3-thiazol-2-yl]azetidin-3-yl}thio-6-[(R)-1-hydroxyethyl]-1-methylcarbapen-2-em-3-carboxylic acid]	1.41	–	–	–	–	–	–
34100	40.2	27	0.2 (≈ 0.487 µM)	0.39 (≈ 0.95 µM)	≤ 0.012	C[C@@H](O)[C@H]1C(=O)N2C(C(=O)O)=C(SC3CN(c4nc(CN)cs4)C3)[C@H](C)[C@H]12 [Example 67, (1R,5S,6S)-2-[1-(4-aminomethyl-1,3-thiazol-2-yl)azetidin-3-yl]thio-6-[(R)-1-hydroxyethyl]-1-methylcarbapen-2-em-3-carboxylic acid]	1.6	–	–	–	–	–	–
–	–	–	0.78	≤ 0.012	≤ 0.012	C[C@@H](O)[C@H]1C(=O)N2C(C(=O)O)=C(SC3CN(c4nc(CNC(=O)c5ccccc5)cs4)C3)[C@H](C)[C@H]12 [Example 69, (1R,5S,6S)-2-{1-[4-(benzoylaminomethyl)-1,3-thiazol-2-yl]azetidin-3-yl}thio-6-[(R)-1-hydroxyethyl]-1-methylcarbapen-2-em-3-carboxylic acid sodium salt]	–	–	–	–	–	–	–
